Legend:
mouse Elevated Zero Maze = experiment: Anxiolytic activity: mouse Elevated Zero Maze model; assay type: in vivo; conditions: 30 min prior to testing, mice; for % Total Distance Traveled (Relative to Control): 3 mg/kg ip.
Protocol: Anxiolytic activity of the compounds of formula I was determined using the mouse Elevated Zero Maze model, originally described by Shepherd, et al. (Psychopharmocol. (1994) 116:56–64), incorporated herein by reference in its entirety. Anxiolytic efficacy was measured as the ability of the test compound to increase the amount of time that the mice spent in the open zones of the maze. To account for the possibility of false positive results due to increased locomotor activity, total distance traveled during the course of the experiment was also monitored.
The zero maze, constructed of black Perspex, consisted of a circle (outer diameter approximately 60 cm, width 5 cm) that was elevated 55 cm above the floor. The zero maze was divided into 4 equal quadrants, alternating between open and closed. […] Animals were tested under low levels of illumination in the presence of red light. Test animals (male CN57BI/n mice) were group housed with ad lib access to food and water. On the day of testing, animals were brought into the behavioral testing room and allowed to habituate for a period of not less than one-half hour. Test compounds were administered at the appropriate dose ip. 30 min prior to testing on the zero maze. Control animals were administered the test vehicle. Animals were placed on the zero maze with their head and forepaws contained within a closed quadrant. The animals' behavior was then recorded for 4 minutes and the distance traveled, the amount of time spent in, and number of entries into, each quadrant was noted. Behavior was monitored utilizing an automated video tracking system. Results for the test compounds are presented here as the percentage relative to that obtained with the control animals.

[1] = target: T1, human Kv1.1/Kvβ1 potassium ion channel complex (Homo sapiens, UniProt Q09470); experiment: Xenopus oocytes current assay (inhibition of inactivation, voltage clamp); assay type: cell-based; conditions: Xenopus oocytes expressing hKv1.1/hKvβ1, relative to control bath solution, read-out: Percent Increase in Steady State Current Of human Kv1.1/Kvβ1 @ a concentration of 50 μM
T1 construct: expressed in transfected cells; host or cells: Xenopus oocytes injected with cRNA
T1 sequence (Q09470 whole entry, one chain of several): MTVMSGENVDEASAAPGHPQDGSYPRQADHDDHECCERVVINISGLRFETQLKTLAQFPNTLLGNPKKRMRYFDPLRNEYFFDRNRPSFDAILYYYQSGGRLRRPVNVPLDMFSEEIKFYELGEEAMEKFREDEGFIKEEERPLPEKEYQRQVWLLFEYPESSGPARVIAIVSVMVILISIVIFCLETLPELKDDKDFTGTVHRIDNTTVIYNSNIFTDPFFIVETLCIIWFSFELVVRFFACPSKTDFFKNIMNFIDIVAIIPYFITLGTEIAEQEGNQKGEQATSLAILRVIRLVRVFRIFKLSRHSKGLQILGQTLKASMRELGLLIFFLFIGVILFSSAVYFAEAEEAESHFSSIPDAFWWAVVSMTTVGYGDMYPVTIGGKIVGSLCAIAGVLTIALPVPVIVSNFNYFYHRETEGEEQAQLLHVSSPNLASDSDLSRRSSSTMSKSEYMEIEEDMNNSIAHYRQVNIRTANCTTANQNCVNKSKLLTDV
Protocol: The compounds of formula I were examined for their ability to inhibit the inactivation of the human Kv1.1/Kvβ1 potassium ion channel complex in vitro using electrophysiological current recordings on inactivating Kv1.1/Kvβ1 channels expressed in Xenopus oocytes. Xenopus oocytes were harvested from frogs under general anesthesia using aseptic techniques. Oocytes were treated with 2 mg/ml collagenase for 1–1.5 hr, defolliculated, and injected with 40 nL cRNA (a mixture of hky1.1 and hKvβ1) produced using standard molecular biological techniques (Sambrook, et al., 1989, Molecular Cloning: A Laboratory Manual). The concentration of hKv1.1/hKvp1 cRNA varies, but was generally about 50 ng/μL hKv1.1 and […] hKβ1.
Currents were recorded using standard voltage clamp amplifiers at room temperature. Recordings were performed in the bath solution “ND-96” containing 96 mM NaCl, 2 mM KCl, 1 mm CaCl2, 1 mM MgCl2, 10 mM HEPES and […] Gentamycin (pH=7.6). The pipette (electrode) solution generally consisted of […]. Electrodes were made from WPI TW150F-4 borosilicate glass (or equivalent) and typically had resistances of 0.5–1.5 Mohms. The standard current-voltage (IV) pulse protocol consisted of voltage steps from −60 mV to +50 mV, in 10 mV increments for 200 ms, at a frequency of one IV set per 2 minutes. Data were digitized and analyzed by standard software packages.
Solutions of the test compounds consisting of test compounds dissolved in bath solution were applied by bath perfusion using gravity or pump-driven flow. A minimum of 2 mL (10 times the bath volume) over 3 minutes were flowed for each compound concentration tested. Data were averaged across at least 3 cells tested for each concentration.
Test compounds were examined for their ability to inhibit the inactivation of the steady state portion of the IV curve.

CN1C(=O)CN=C(c2ccccc2)c2cc(Cl)ccc21 [Diazepam, reference compound]
% Total Distance Traveled (Relative to Control) (mouse Elevated Zero Maze): 75%
% Total Distance Traveled (Relative to Control) (mouse Elevated Zero Maze; listed as diazepam): small decrease

CC1(C)C2CC[C@]1(C)C(=O)C(C(=O)Nc1cccc(C(F)(F)F)c1)C2=O (stereo partly drawn) [Example 2, (1S)-N-[3-(trifluoromethyl)phenyl]-1,8,8-trimethyl-2,4-dioxobicyclo[3.2.1] octane-3-carboxamide]
activation at 50 µM [1]: 22%
melting point: 60 to 62 °C
% Time Spent in Open Zones (Relative to Control) (mouse Elevated Zero Maze; 60 mg/kg ip.): 140%

CC1(C)C2CC[C@]1(C)C(=O)C(C(=O)Nc1ccc(F)c(Cl)c1)C2=O (stereo partly drawn) [Example 10, (1S)-N-[3-chloro-4-fluorophenyl]-1,8,8-trimethyl-2,4-dioxobicyclo[3.2.1] octane-3-carboxamide]
activation at 50 µM [1]: 137%
melting point: 87 to 89 °C

CC1(C)C2CC[C@@]1(C)C(=O)C(C(=O)Nc1cc(C(F)(F)F)cc(C(F)(F)F)c1)C2=O (stereo partly drawn) [Example 12, (1R)-N-[3,5-bis(trifluoromethyl)phenyl]-1,8,8-trimethyl-2,4-dioxobicyclo [3.2.1]octane-3-carboxamide]
activation at 50 µM [1]: 22%
melting point: 68 to 71 °C

CC1(C)C2CC[C@@]1(C)C(=O)C(C(=O)Nc1cc(Cl)cc(Cl)c1)C2=O (stereo partly drawn) [Example 13, (1R)-N-(3,5-dichlorophenyl)-1,8,8-trimethyl-2,4-dioxobicyclo[3.2.1]octane-3-carboxamide]
activation at 50 µM [1]: 19%
melting point: 115 to 117 °C

CC1(C)C2CC[C@@]1(C)C(=O)C(C(=O)Nc1ccc([N+](=O)[O-])cc1)C2=O (stereo partly drawn) [Example 15, (1R)-N-(4-nitrophenyl)-1,8,8-trimethyl-2,4-dioxobicyclo[3.2.1]octane-3-carboxamide]
activation at 50 µM [1]: 75%
melting point: 168 to 170 °C

CC1(C)C2CC[C@@]1(C)C(=O)C(C(=O)Nc1ccc(Cl)c(C(F)(F)F)c1)C2=O (stereo partly drawn) [Example 16, (1R)-N-[4-chloro-3-(trifluoromethyl)phenyl]-1,8,8-trimethyl-2,4-dioxobicyclo [3.2.1]octane-3-carboxamide]
activation at 50 µM [1]: 45%
melting point: 117 to 119 °C

CC1(C)C2CC[C@@]1(C)C(=O)C(C(=O)Nc1ccc(C(F)(F)F)cc1)C2=O (stereo partly drawn) [Example 18, (1R)-N-[4-(trifluoromethyl)phenyl]-1,8,8-trimethyl-2,4-dioxobicyclo[3.2.1] octane-3-carboxamide]
activation at 50 µM [1]: 96%
melting point: 78 to 81 °C

CC1(C)C2CC[C@@]1(C)C(=O)C(C(=O)Nc1ccc(Cl)cc1)C2=O (stereo partly drawn) [Example 19, (1R)-N-[4-chlorophenyl]-1,8,8-trimethyl-2,4-dioxobicyclo[3.2.1]octane-3-carboxamide]
activation at 50 µM [1]: 14%
melting point: 88 to 90 °C

CC1(C)C2CC[C@@]1(C)C(=O)C(C(=O)Nc1ccc(F)c(Cl)c1)C2=O (stereo partly drawn) [Example 20, (1R)-N-[3-chloro-4-fluorophenyl]-1,8,8-trimethyl-2,4-dioxobicyclo[3.2.1] octane-3-carboxamide]
activation at 50 µM [1]: 267%
melting point: 89 to 91 °C

CC1(C)C2CC[C@@]1(C)C(=O)C(C(=O)Nc1ccc(F)c(C(F)(F)F)c1)C2=O (stereo partly drawn) [Example 21, (1R)-N-[3(trifluoromethyl)-4-fluorophenyl]-1,8,8-trimethyl-2,4-dioxobicyclo [3.2.1]octane-3-carboxamide]
activation at 50 µM [1]: 229%
melting point: 96 to 98 °C

O=C(Nc1cccc(C(F)(F)F)c1)C1C(=O)C2CCC(C2)C1=O (stereo not shown) [Example 22, N-[3-(trifluoromethyl)phenyl]-2,4-dioxobicyclo[3.2.1]octane-3-carboxamide]
activation at 50 µM [1]: 41%
melting point: 68 to 69 °C

O=C(Nc1cc(C(F)(F)F)cc(C(F)(F)F)c1)C1C(=O)C2CCC(C2)C1=O (stereo not shown) [Example 23, N-[3,5-bis(trifluoromethyl)phenyl]-2,4-dioxobicyclo[3.2.1]octane-3-carboxamide]
activation at 50 µM [1]: 137%
melting point: 88 to 90 °C

O=C(Nc1ccc(Cl)c(C(F)(F)F)c1)C1C(=O)C2CCC(C2)C1=O (stereo not shown) [Example 25, N-[4-chloro-3-(trifluoromethyl)phenyl]-2,4-dioxobicyclo[3.2.1]octane-3-carboxamide]
activation at 50 µM [1]: 47%
melting point: 136 to 137 °C

O=C(Nc1ccc(F)c(C(F)(F)F)c1)C1C(=O)C2CCC(C2)C1=O (stereo not shown) [Example 27, N-[4-fluoro-3-(trifluoromethyl)phenyl]-2,4-dioxobicyclo[3.2.1]octane-3-carboxamide]
activation at 50 µM [1]: 43%
melting point: 97 to 100 °C

From patent publication US7179943B2, “Bicyclic derivatives that modulate voltage-gated potassium channels and methods of use thereof” (Wyeth, priority 2004, dated 2007)
